Read-outs that look alike come from different tables or passages of the source.
Target: T1, human GPBAR1 receptor (Homo sapiens, UniProt Q8TDU6)
T1 construct: expressed in transfected cells
T1 sequence (Q8TDU6 1-330): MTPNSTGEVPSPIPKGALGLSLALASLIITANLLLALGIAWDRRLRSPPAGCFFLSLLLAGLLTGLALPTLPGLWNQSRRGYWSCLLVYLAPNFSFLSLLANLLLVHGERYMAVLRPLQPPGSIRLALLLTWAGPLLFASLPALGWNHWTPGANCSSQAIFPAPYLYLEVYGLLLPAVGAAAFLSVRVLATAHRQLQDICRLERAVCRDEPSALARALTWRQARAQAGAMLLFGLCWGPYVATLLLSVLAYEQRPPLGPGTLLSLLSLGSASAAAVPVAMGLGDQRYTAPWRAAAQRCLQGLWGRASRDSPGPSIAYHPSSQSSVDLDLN
Test: functional cAMP assay in CHO-dhfr(minus) cells expressing human GPBAR1 receptors
Assay type: cell-based
Conditions: 30 min at 30° C.
Procedure, shortened: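 Agonist cAMP read-out: stable GPBAR1 CHO-dhfr− clone, 30 min compound exposure at 30° C following 30 min IBMX (1 mM) preincubation in Krebs Ringer bicarbonate. Time-resolved energy-transfer detection gives EC50; parental CHO cells serve as counter-screen.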

[1] = human EC50, functional cAMP assay

EC50 [1] | EC50 (functional cAMP assay, read-out: human EC50) | Compound
14 nM |  | Cc1cc(/C(CC(c2ccc(-c3ccc(C(=O)O)c(F)c3)cc2)c2ccccc2C)=N/O)ccn1 (stereo not drawn) [Example 131, 3-Fluoro-4′-[3-[(E)-hydroxyimino]-3-(2-methyl-pyridin-4-yl)-1-o-tolyl-propyl]-biphenyl-4-carboxylic acid]
93 nM |  | Cc1ccccc1C(C/C(=N\O)c1ccc(=O)n(C)c1)c1ccc(C(=O)NCCO)cc1 (stereo not drawn) [Example 208, N-(2-Hydroxy-ethyl)-4-[3-[(E)-hydroxyimino]-3-(1-methyl-6-oxo-1,6-dihydro-pyridin-3-yl)-1-o-tolyl-propyl]-benzamide]
18 nM |  | Cc1cc(/C(C[C@@H](c2ccc(N3CCC(C(=O)O)CC3)cc2)c2ccc(F)cc2F)=N/O)ccn1 (single isomer, unassigned) [Example 428, 1-{4-[(+)-1-(2,4-Difluoro-phenyl)-3-[(E)-hydroxyimino]-3-(2-methyl-pyridin-4-yl)-propyl]-phenyl}-piperidine-4-carboxylic acid]
75 nM |  | Cc1cc(/C(CC(c2ccc(C(=O)N3CCC(F)(F)CC3)cc2)c2ccc(F)cc2F)=N/O)ccn1 (stereo not drawn) [Example 437, 3-(2,4-Difluoro-phenyl)-3-[4-(4,4-difluoro-piperidine-1-carbonyl)-phenyl]-1-(2-methyl-pyridin-4-yl)-propan-1-one oxime]
256 nM |  | CCCCC(C/C(=N\O)c1ccc(=O)n(C)c1)c1ccc(Br)cc1 (stereo not drawn) [Example 177, 5-{3-(4-Bromo-phenyl)-1-[(E)-hydroxyimino]-heptyl}-1-methyl-1H-pyridin-2-one]
1700 nM |  | Cc1cc(/C(CC(c2cccc(-c3ccc(C(=O)O)c(F)c3)c2)c2ccccc2C)=N/O)ccn1 (stereo not drawn) [Example 101, 3-Fluoro-3′-[3-[(E)-hydroxyimino]-3-(2-methyl-pyridin-4-yl)-1-o-tolyl-propyl]-biphenyl-4-carboxylic acid]
60 nM |  | Cc1cc(Cl)ccc1C(C/C(=N\O)c1ccc(=O)n(C)c1)c1ccc(S(N)(=O)=O)cc1 (stereo not drawn) [Example 338, (E)-4-(1-(4-chloro-2-methylphenyl)-3-(hydroxyimino)-3-(1-methyl-6-oxo-1,6-dihydropyridin-3-yl)propyl)benzenesulfonamide]
41 nM |  | Cc1ccccc1[C@H](C/C(=N\O)c1ccc(=O)n(C)c1)c1ccc(N2CCC(C(=O)O)CC2)cc1 [Example 497, Sodium (R,E)-1-(4-(3-(Hydroxyimino)-3-(1-methyl-6-oxo-1,6-dihydropyridin-3-yl)-1-o-tolylpropyl)phenyl)piperidine-4-carboxylate]
28 nM |  | Cc1cc(/C(C[C@H](c2ccc(O)cc2)c2ccccc2C)=N/O)ccn1 [Example 363, (R)-3-(4-Hydroxy-phenyl)-1-(2-methyl-pyridin-4-yl)-3-o-tolyl-propan-1-one oxime]
122 nM |  | Cc1cc(/C(CC(c2cccc(S(C)(=O)=O)c2)c2ccccc2C)=N/O)ccn1 (stereo not drawn) [Example 391, (E)-1-(2-methylpyridin-4-yl)-3-(3-(methylsulfonyl)phenyl)-3-o-tolylpropan-1-one oxime]
12 nM |  | Cc1cc(/C(CC(c2ccc(Br)cc2)c2ccc(F)cc2C)=N/O)ccn1 (stereo not drawn) [Example 140, (E)-3-(4-Bromophenyl)-3-(4-fluoro-2-methylphenyl)-1-(2-methylpyridin-4-yl)propan-1-one oxime]
266 nM |  | Cn1cc(/C(CC(c2ccc(C(=O)NCCS(C)(=O)=O)cc2)c2ccc(Cl)cc2F)=N/O)ccc1=O (stereo not drawn) [Example 313, 4-[1-(4-Chloro-2-fluoro-phenyl)-3-[(E)-hydroxyimino]-3-(1-methyl-6-oxo-1,6-dihydro-pyridin-3-yl)-propyl]-N-(2-methanesulfonyl-ethyl)-benzamide]
62 nM |  | Cc1cc(/C(CC(c2ccc(C(=O)NC3CCCCC3)cc2)c2ccc(F)cc2F)=N/O)ccn1 (stereo not drawn) [Example 436, N-Cyclohexyl-4-[1-(2,4-difluoro-phenyl)-3-[(E)-hydroxyimino]-3-(2-methyl-pyridin-4-yl)-propyl]-benzamide]
3 nM |  | Cc1cc(/C(C[C@@H](c2ccc(-c3ccc(C(=O)O)cc3)cc2)c2ccc(F)cc2C)=N/O)ccn1 (single isomer, unassigned) [Example 398, (−)-4′-[1-(4-Fluoro-2-methyl-phenyl)-3-[(E)-hydroxyimino]-3-(2-methyl-pyridin-4-yl)-propyl]-biphenyl-4-carboxylic acid; compound with triethylamine 1:0.75]
578 nM |  | Cc1cc(C(CC(c2cccc(-c3ccc(S(C)(=O)=O)cc3)c2)c2ccccc2C)=NO)ccn1 (racemic) [Example 104, 3-(4′-Methanesulfonyl-biphenyl-3-yl)-1-(2-methyl-pyridin-4-yl)-3-o-tolyl-propan-1-one oxime]
255 nM |  | Cn1cc(C(CC(c2ccc(C(=O)NCCO)c(F)c2)c2ccccc2Cl)=NO)ccc1=O (mixture of isomers) [Example 216, (E/Z)-4-(1-(2-Chlorophenyl)-3-(hydroxyimino)-3-(1-methyl-6-oxo-1,6-dihydropyridin-3-yl)propyl)-2-fluoro-N-(2-hydroxyethyl)benzamide]
14 nM |  | Cc1cc(/C(C[C@H](c2ccc(C3CCN(S(C)(=O)=O)CC3)cc2)c2ccccc2C)=N/O)ccn1 [Example 379, (R,E)-1-(2-methylpyridin-4-yl)-3-(4-(1-(methylsulfonyl)piperidin-4-yl)phenyl)-3-o-tolylpropan-1-one oxime]
15 nM |  | Cc1cc(/C(C[C@H](c2ccc(-c3ccc(C(=O)O)c(Cl)c3)cc2)c2ccc(Cl)cc2F)=N/O)ccn1 [Example 452, (−)-3-Chloro-4′-[1-(4-chloro-2-fluoro-phenyl)-3-[(E)-hydroxyimino]-3-(2-methyl-pyridin-4-yl)-propyl]-biphenyl-4-carboxylic acid]
80 nM |  | Cc1cc(/C(C[C@H](c2ccc(C(=O)N(C)CCO)cc2)c2ccccc2C)=N/O)ccn1 [Example 274, N-(2-Hydroxy-ethyl)-4-[(R)-3-[(E)-hydroxyimino]-3-(2-methyl-pyridin-4-yl)-1-o-tolyl-propyl]-N-methyl-benzamide]
10 nM |  | Cc1cc(F)ccc1C(C/C(=N\O)c1ccc(=O)n(C)c1)c1ccc(-c2ccc(C(=O)NCC(=O)O)cc2)cc1 (stereo not drawn) [Example 258, ({4′-[1-(4-Fluoro-2-methyl-phenyl)-3-[(E)-hydroxyimino]-3-(1-methyl-6-oxo-1,6-dihydro-pyridin-3-yl)-propyl]-biphenyl-4-carbonyl}-amino)-acetic acid]
 | 10 nM | Cc1ccccc1[C@H](C/C(=N\O)c1cc(Br)c(=O)n(C)c1)c1ccc(Br)cc1 [Example 252, 3-Bromo-5-{(R)-3-(4-bromo-phenyl)-1-[(E)-hydroxyimino]-3-o-tolyl-propyl}-1-methyl-1H-pyridin-2-one]
347 nM |  | Cc1cc(C(=O)O)ccc1-c1ccc(C(C/C(=N\O)c2ccc(=O)n(C)c2)c2ccc(Cl)cc2F)cc1 (single isomer, unassigned) [Example 466, 4′-[(+)-1-(4-Chloro-2-fluoro-phenyl)-3-[(E)-hydroxyimino]-3-(1-methyl-6-oxo-1,6-dihydro-pyridin-3-yl)-propyl]-2-methyl-biphenyl-4-carboxylic acid]
14 nM |  | Cc1cc(/C(C[C@H](c2ccc(S(C)(=O)=O)cc2)c2ccccc2C)=N/O)ccn1 [Example 358, (R)-3-(4-Methanesulfonyl-phenyl)-1-(2-methyl-pyridin-4-yl)-3-o-tolyl-propan-1-one oxime]
300 nM |  | Cc1cc(C(C=C(c2ccccc2)c2ccccc2)=NO)cc(C)n1 (mixture of isomers) [Example 66, 1-(2,6-Dimethyl-pyridin-4-yl)-3,3-diphenyl-propenone oxime]
10 nM |  | Cc1cc(Cl)ccc1C(C/C(=N\O)c1ccc(=O)n(C)c1)c1ccc(-c2ccc(C(=O)NCC(=O)O)cc2)cc1 (single isomer, unassigned; (+)) [Example 256, (+)-({4′-[1-(4-Chloro-2-methyl-phenyl)-3-[(E)-hydroxyimino]-3-(1-methyl-6-oxo-1,6-dihydro-pyridin-3-yl)-propyl]-biphenyl-4-carbonyl}-amino)-acetic acid]
20 nM |  | Cn1cc(/C(CC(c2ccc(Br)cc2)c2ccccc2F)=N/O)ccc1=O (stereo not drawn) [Example 243, (E)-5-(3-(4-Bromophenyl)-3-(2-fluorophenyl)-1-(hydroxyimino)propyl)-1-methylpyridin-2(1H)-one]
137 nM |  | Cc1cc(Cl)ccc1C(C/C(=N\O)c1ccc(=O)n(C)c1)c1ccc(Oc2ccc(Cl)c(C(=O)O)c2)c(F)c1 (stereo not drawn) [Example 326, 2-Chloro-5-{4-[1-(4-chloro-2-methyl-phenyl)-3-[(E)-hydroxyimino]-3-(1-methyl-6-oxo-1,6-dihydro-pyridin-3-yl)-propyl]-2-fluoro-phenoxy}-benzoic acid]
221 nM |  | O/N=C(\CC(c1ccccc1)c1ccccc1)c1cc(Cl)nc(Cl)c1 [Example 72, (E)-1-(2,6-Dichloro-pyridin-4-yl)-3,3-diphenyl-propan-1-one oxime]
327 nM |  | Cc1cc(Cl)ccc1[C@H](C/C(=N\O)c1ccnc(CO)c1)c1ccc(Br)cc1 [Example 383, (R,E)-3-(4-Bromophenyl)-3-(4-chloro-2-methylphenyl)-1-(2-(hydroxymethyl)pyridin-4-yl)propan-1-one oxime]
17 nM |  | Cc1cc(/C(CC(c2ccc(-c3ccc(C(=O)O)s3)cc2)c2ccc(Cl)cc2F)=N/O)ccn1 (stereo not drawn) [Example 457, 5-{4-[1-(4-Chloro-2-fluoro-phenyl)-3-[(E)-hydroxyimino]-3-(2-methyl-pyridin-4-yl)-propyl]-phenyl}-thiophene-2-carboxylic acid]
